According to the METLIN SMRT retention time set (Domingo-Almenara et al. 2019):

Assay: gradient 5% acetonitrile 3 min, to 50% in 2 min, to 85% in 15 min, held 3 min, 100 µL/min
Conditions: column: Zorbax Extend-C18 2.1 x 50 mm; eluents: water / acetonitrile, 0.1% formic acid
Method in brief: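 Standards, all pure, were combined into mixtures of ~100 molecules and run at 100 μL/min on a Zorbax Extend-C18 column (2.1 × 50 mm, 1.8 μm) with water and acetonitrile, each containing 0.1% formic acid. A coupled quadrupole time-of-flight mass spectrometer operated in positive and negative ionization mode. Retention time values come from computationally picked adduct peaks, each inspected manually.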

RP-LC retention time	Compound
831 s	CC(NC(=O)C1C(=O)NC2(C)CC1c1ccccc1O2)c1ccccc1 (stereo not drawn)
794 s	CC(C)OCCCNC(=O)c1cc2c(n(-c3ccc(F)cc3)c1=O)CCCC2=O
872 s	Cc1ccc(C(C)NC(=O)c2cn(-c3ccc(NC(=O)CC(C)C)cn3)cn2)cc1 (stereo not drawn)
975 s	Cc1nc(-c2cn(C)c3ncccc23)sc1C(=O)Nc1ccc(Cl)cc1F
626 s	O=C(NCCc1csc(C2CCN(C(=O)C3CCCO3)CC2)n1)C1CCC1 (stereo not drawn)
811 s	O=C(c1ccc2c(c1)OCO2)N1CCC2(CC1)NC(=O)N(Cc1ccc(Cl)cc1)C2=O
599 s	O=C(NCc1cccnc1)c1cn2ccnc(-c3ccccc3)c2n1
966 s	COc1ccc(-c2csc(Nc3ccc(S(=O)(=O)Nc4nc(C)cc(C)n4)cc3)n2)cc1C
562 s	OC[C@@H]1CN(Cc2ccncc2F)C[C@H]1c1nc(C2CC2)no1
721 s	Cc1cccc(NC(=O)Nc2ccc(C)n(CC(=O)O)c2=O)c1
639 s	Cn1c(=O)n([C@@H]2CCN(C(=O)C3CCC3)C2)c2ncccc21
594 s	Cc1cccc(NC(=O)Cn2ncn3c(C)c(C(=O)NCC(C)C)c(C)c3c2=O)c1
689 s	O=C(NC1CC1)c1cccc(OCC2CCCN(C(=O)C3CCCO3)C2)c1 (stereo not drawn)
661 s	CS(=O)(=O)c1ccc(NC(=O)C2CN(C(=O)c3ccc(F)c(F)c3)C2)cc1
1090 s	COc1ccc(-c2nc(CN3C(=O)C(O)(c4ccc(C)cc4)c4ccccc43)c(C)o2)cc1 (stereo not drawn)
1030 s	CC1CCN(C(=O)c2cn(-c3cc(N4CCC(C)CC4)ncn3)cn2)CC1
787 s	CCCCOc1ccc(NC(=O)c2cc(=O)c3cc(Cl)ccc3o2)c2cccnc12
637 s	COc1cc(NC(=O)N2CCC(n3c(C)nc4cccnc43)CC2)cc(OC)c1
1040 s	CCOc1ccc(-c2noc(Cn3ncn4nc(-c5ccc(OC)cc5)cc4c3=O)n2)cc1OC
701 s	O=C(NC1CC1)C1CCN(Cc2cc3ccccc3n2Cc2ccc(F)cc2)CC1
781 s	CCCNC(=O)C1CCN(c2cc(SCC(=O)Nc3ccc(C(=O)OCC)cc3)ncn2)CC1
870 s	COc1ccc(-c2noc(Cn3ccn(-c4c(C)cccc4C)c(=O)c3=O)n2)cc1

RP-LC retention time	Compound
813 s	Cn1cc(Cl)c(C(=O)N2CCCC2c2ccccc2F)n1 (stereo not drawn)
692 s	Cc1ccn2cc(C(=O)N3CCN(c4cccc(Cl)c4)CC3)nc2c1
628 s	CCc1nc2cc3c(cc2n1CC(=O)NC(C)c1ccc2c(c1)OCCCO2)OCCO3 (stereo not drawn)
628 s	Cc1ccn2cc(C(=O)NCc3ccccc3F)nc2c1
596 s	O=C(Cn1cnc2ccccc2c1=O)NC1CC1
564 s	CC(C)NC(=O)N1CCC(OC2CCN(Cc3ccccc3)CC2)CC1
1050 s	CCn1cc(-c2nc(-c3cccc(Br)c3)no2)c(=O)c2cc(F)c(N3CCOCC3)cc21
832 s	Cc1nc2nc(-c3ccc(C(C)(C)C)cc3)nn2c(C)c1CC(=O)N1CCOCC1
648 s	O=C(CCSc1ccccc1)Nc1cccc2ccc(-n3ccnc3)nc12
973 s	CNS(=O)(=O)c1cccnc1Nc1ccc(F)c(Cl)c1
748 s	COc1ccc(N2CC(c3nc(-c4ccc(CNC(=O)C5CC5)s4)no3)CC2=O)cc1 (stereo not drawn)
945 s	CCc1nc2sc(C(C)C)nn2c1S(=O)(=O)N1CCCC1
976 s	CCn1c(=O)oc2cc(-c3noc(-c4ccc(OC)cc4)n3)ccc21
879 s	Cc1c(Cl)cccc1NC(=O)CN1C(=O)CCCc2cc(S(=O)(=O)N3CCCC3)ccc21
734 s	O=C(CN1CCCCC1c1nc(C2CC2)no1)Nc1ccccn1 (stereo not drawn)
824 s	COc1ccc(CC(=O)N2CCCC2COc2ccc(C(=O)N3CCCC3)cc2)cc1 (stereo not drawn)
659 s	Cc1cc(NC(=O)C(=O)NCCCn2ccnc2)ccc1Br
883 s	CSc1cccc(NC(=O)N2CCc3c(c(-c4nc(C5CC5)no4)nn3C)C2)c1
699 s	CN1C(=O)C2(CCN(C(=O)c3ccnn3C)CC2)c2ccccc21
897 s	CCCCOc1ccc(-c2csc(NC(=O)c3cc4cccc(OC)c4oc3=O)n2)cc1
693 s	Cc1ccc(CNC(=O)C2c3ccccc3CC(=O)N2C)o1 (stereo not drawn)
632 s	O=S(=O)(c1ccc(F)c(Cl)c1)N1CCc2nc[nH]c2C1

RP-LC retention time	Compound
863 s	CN(CCc1noc(COc2ccccc2)n1)C(=O)Cc1ccccc1
660 s	O=C(NCCc1nc(-c2ccc3c(c2)OCO3)n[nH]1)c1cc(F)ccc1Cl
1100 s	O=S(=O)(c1cc(F)ccc1F)N1CCc2nc(-c3ccc(F)cc3)ncc2C1
623 s	CNC(=O)c1nc(C(C)(C)NC(=O)c2ccco2)nc2c1OCO2
812 s	O=C(Nc1cccc2ccccc12)c1ccc(F)cc1
657 s	CCOC(=O)c1c(C)[nH]c(C(=O)N2CCC(CC(=O)NCC3CCCO3)CC2)c1C (stereo not drawn)
811 s	O=C(Cc1ccsc1)Nc1ccc(N2CCN(c3ccccc3)C2=O)nc1
798 s	COc1ccc(OC)c2c(C)cc(N3CCN(S(=O)(=O)c4ccc(C)cc4)CC3)nc12
1100 s	Cc1csc(-c2cc(S(=O)(=O)NCC3CCCCC3)cn2CC(=O)N2CCCCC2)n1
727 s	Cc1cc(C(=O)N2CCC(c3nc(-c4ccccc4)no3)C2)n[nH]1 (stereo not drawn)
886 s	CCOC(=O)CNC(=O)N1CCc2c([nH]c3ccc(OC)cc23)C1c1ccc(OC)cc1 (stereo not drawn)
726 s	Cc1ccc(-c2nc3nc(C)cc(C)n3c2Nc2ccccc2)cc1
605 s	CCc1cccc(NC(=O)c2cc3n(n2)CC(C)(C(=O)NC2CCCC2)N(CC)C3=O)c1 (stereo not drawn)
998 s	O=C(CCc1ccccc1)NCCn1c(C(F)(F)F)nc2cccnc21
655 s	O=C(CCc1c(-c2ccc(F)cc2)nc2ccccn12)NCc1ccc2c(c1)OCO2
805 s	Cc1cc(N2CCN(S(=O)(=O)c3ccc(F)cc3F)CC2)nc(NC2CCCCC2)n1
882 s	COc1ccccc1OCc1nn2c(CSc3ccccc3)nnc2s1
1160 s	COc1ccc(-c2csc(Cc3nc(-c4ccccc4Cl)no3)n2)cc1
1010 s	CCCn1c(=O)sc2cc(S(=O)(=O)N3CCC(C(=O)Nc4cccc(C)c4)CC3)ccc21
956 s	O=C(Cn1cccc(-c2nc(-c3ccc(Cl)cc3)no2)c1=O)Nc1ccc(F)cc1
1310 s	O=S(=O)(c1ccc(Cl)s1)N1CCc2nc(-c3ccc(Cl)cc3)ncc2C1
546 s	Cn1c(=O)c2ccn(CC(=O)N3CCN(c4ccccn4)CC3)c2n(C)c1=O

RP-LC retention time	Compound
896 s	O=S(=O)(c1ccccc1)N1CCC(c2nc(CCOCC3CC3)no2)C1 (stereo not drawn)
667 s	CC(C)n1nc(CO)c2c1CCN(C(=O)C1COc3ccccc3O1)C2 (stereo not drawn)
590 s	Cc1ccccc1OCC(=O)N1CC(CN(C)C)C2(CCOCC2)C1 (stereo not drawn)
794 s	Cc1ccc(N2CCC(NC(=O)c3ccccc3)C2=O)cc1 (stereo not drawn)
855 s	Cc1ccc(-c2cn3c(CC(=O)Nc4cccc(C#N)c4)csc3n2)cc1C
1060 s	CCOC(=O)c1nc(NCC2CCN(Cc3ccccc3Cl)CC2)c2ccccc2n1
759 s	Cc1ccc(C)c(CNC(=O)C2CCCN(c3cnc4nccnc4c3)C2)c1 (stereo not drawn)
743 s	Cc1cc(C)n2c(Nc3c(C)cccc3C)c(-c3ccccc3)nc2n1
616 s	CNC(=O)c1ccc(-c2nc3cc(NS(=O)(=O)c4ccccc4F)ccc3n2C)cc1
912 s	CCOC(=O)c1[nH]c(C(=O)O)c(OC(=O)CC)c1C
632 s	Cn1c(=O)n(CC(=O)O)c(=O)c2c1nc1n2CCCN1c1ccc(F)cc1
866 s	Cc1ccc2nc(NC(=O)CSc3nnc(C4COc5ccccc5O4)o3)sc2c1 (stereo not drawn)
908 s	CCc1noc2nc(C)n(CC(=O)NCCC3=CCCCC3)c(=O)c12
735 s	Cc1oc2c(C)c3oc(=O)c(CC(=O)N4CCC(C(N)=O)CC4)c(C)c3cc2c1C
594 s	O=C(NCc1cc(F)cc(F)c1)c1ccc2c(c1)ncn2CCN1CCCC1
817 s	Cc1ccc(NC(=O)N2C[C@@H](F)C[C@H]2C(=O)N2CCc3ccccc3C2)cc1C
732 s	CS(=O)(=O)N1CCC(CNC(=O)NC(c2ccccc2)c2ccccc2)CC1
829 s	O=C(Cn1c(=O)nc(N2CCCCC2)c2ccccc21)Nc1cc(F)cc(F)c1
998 s	Cc1ccc2ncn(C3CCN(S(=O)(=O)c4ccc(C)c(C)c4)CC3)c(=O)c2c1
882 s	O=C(c1cn(-c2cccc(Cl)c2)nn1)N1CCN(c2ccccc2F)CC1
1070 s	Cc1ccc(CCC(=O)Nc2nc(-c3ccc4c(c3)N(C)C(=O)C(C)O4)cs2)cc1 (stereo not drawn)
849 s	CCCN1C(=O)COc2ccc(-c3noc(CNC(=O)Cc4ccccc4)n3)cc21
